Source: the NIST ThermoML archive (doi:10.1016/j.fluid.2007.04.023)
± gives the expanded uncertainty stated by the source.

Details: Liquid, Vibrating tube method

CCCCCCCCCCCC [dodecane]
Details | mass density [kg/m3]
313.09 K, 1022 kPa | 735.79 ± 0.33
313.09 K, 2023 kPa | 736.6 ± 0.34
313.09 K, 3017 kPa | 737.36 ± 0.35
313.09 K, 4026 kPa | 738.14 ± 0.36
313.09 K, 5023 kPa | 738.89 ± 0.38
313.09 K, 6032 kPa | 739.66 ± 0.39
313.09 K, 7011 kPa | 740.38 ± 0.4
313.09 K, 8009 kPa | 741.15 ± 0.41
313.09 K, 9026 kPa | 741.91 ± 0.43
313.09 K, 10008 kPa | 742.66 ± 0.44
313.09 K, 11022 kPa | 743.39 ± 0.45
313.09 K, 12012 kPa | 744.09 ± 0.46
313.09 K, 13019 kPa | 744.82 ± 0.48
313.09 K, 14017 kPa | 745.55 ± 0.49
313.09 K, 15025 kPa | 746.22 ± 0.5
313.09 K, 16025 kPa | 746.91 ± 0.51
313.09 K, 17015 kPa | 747.58 ± 0.52
313.09 K, 18022 kPa | 748.26 ± 0.54
313.09 K, 19025 kPa | 748.93 ± 0.55
313.09 K, 20013 kPa | 749.59 ± 0.56
313.09 K, 21015 kPa | 750.23 ± 0.57
313.09 K, 22011 kPa | 750.9 ± 0.58
313.09 K, 23021 kPa | 751.53 ± 0.6
313.09 K, 24015 kPa | 752.21 ± 0.61
313.09 K, 24354 kPa | 752.42 ± 0.61
322.97 K, 1025 kPa | 728.33 ± 0.33
322.97 K, 2028 kPa | 729.17 ± 0.34
322.97 K, 3026 kPa | 729.97 ± 0.35
322.97 K, 4034 kPa | 730.78 ± 0.37
322.97 K, 5021 kPa | 731.59 ± 0.38
322.97 K, 6017 kPa | 732.37 ± 0.39
322.97 K, 7017 kPa | 733.17 ± 0.41
322.97 K, 8041 kPa | 733.99 ± 0.42
322.97 K, 9015 kPa | 734.73 ± 0.43
322.97 K, 10016 kPa | 735.5 ± 0.44
322.97 K, 11019 kPa | 736.28 ± 0.46
322.97 K, 12011 kPa | 737.01 ± 0.47
322.97 K, 13028 kPa | 737.78 ± 0.48
322.97 K, 14041 kPa | 738.53 ± 0.49
322.97 K, 14994 kPa | 739.22 ± 0.51
322.97 K, 16027 kPa | 739.96 ± 0.52
322.97 K, 17001 kPa | 740.64 ± 0.53
322.97 K, 18015 kPa | 741.35 ± 0.54
322.97 K, 19032 kPa | 742.07 ± 0.56
322.97 K, 20004 kPa | 742.74 ± 0.57
322.97 K, 21009 kPa | 743.43 ± 0.58
322.97 K, 22023 kPa | 744.14 ± 0.59
322.97 K, 23009 kPa | 744.8 ± 0.6
322.97 K, 24013 kPa | 745.5 ± 0.62
322.97 K, 24507 kPa | 745.83 ± 0.62
332.8 K, 1023 kPa | 721.08 ± 0.33
332.8 K, 2019 kPa | 721.96 ± 0.34
332.8 K, 3022 kPa | 722.81 ± 0.36
332.8 K, 4030 kPa | 723.69 ± 0.37
332.8 K, 5026 kPa | 724.53 ± 0.38
332.8 K, 6035 kPa | 725.36 ± 0.4
332.8 K, 7014 kPa | 726.16 ± 0.41
332.8 K, 8025 kPa | 727.03 ± 0.42
332.8 K, 9017 kPa | 727.84 ± 0.44
332.8 K, 10020 kPa | 728.67 ± 0.45
332.8 K, 11023 kPa | 729.46 ± 0.46
332.8 K, 12022 kPa | 730.26 ± 0.47
332.8 K, 13004 kPa | 731.04 ± 0.49
332.8 K, 14008 kPa | 731.81 ± 0.5
332.8 K, 15018 kPa | 732.57 ± 0.51
332.8 K, 16023 kPa | 733.35 ± 0.53
332.8 K, 17014 kPa | 734.08 ± 0.54
332.8 K, 18006 kPa | 734.82 ± 0.55
332.8 K, 19024 kPa | 735.59 ± 0.56
332.8 K, 20023 kPa | 736.32 ± 0.58
332.8 K, 21009 kPa | 737.01 ± 0.59
332.8 K, 22009 kPa | 737.73 ± 0.6
332.8 K, 23018 kPa | 738.45 ± 0.61
332.8 K, 24018 kPa | 739.17 ± 0.62
332.8 K, 24665 kPa | 739.63 ± 0.63
342.69 K, 1019 kPa | 713.8 ± 0.33
342.69 K, 2025 kPa | 714.75 ± 0.34
342.69 K, 3025 kPa | 715.67 ± 0.36
342.69 K, 4014 kPa | 716.58 ± 0.37
342.69 K, 5015 kPa | 717.47 ± 0.39
342.69 K, 6017 kPa | 718.36 ± 0.4
342.69 K, 7021 kPa | 719.25 ± 0.41
342.69 K, 8007 kPa | 720.13 ± 0.43
342.69 K, 9019 kPa | 721.03 ± 0.44
342.69 K, 10018 kPa | 721.86 ± 0.45
342.69 K, 11016 kPa | 722.71 ± 0.47
342.69 K, 12013 kPa | 723.56 ± 0.48
342.69 K, 13021 kPa | 724.39 ± 0.49
342.69 K, 14020 kPa | 725.21 ± 0.51
342.69 K, 15030 kPa | 726.04 ± 0.52
342.69 K, 16024 kPa | 726.83 ± 0.53
342.69 K, 17011 kPa | 727.58 ± 0.54
342.69 K, 18025 kPa | 728.36 ± 0.56
342.69 K, 19023 kPa | 729.15 ± 0.57
342.69 K, 20013 kPa | 729.88 ± 0.58
342.69 K, 21006 kPa | 730.67 ± 0.6
342.69 K, 22021 kPa | 731.41 ± 0.61
342.69 K, 23014 kPa | 732.15 ± 0.62
342.69 K, 24013 kPa | 732.89 ± 0.63
342.69 K, 24725 kPa | 733.44 ± 0.64
352.51 K, 1021 kPa | 706.54 ± 0.33
352.51 K, 2027 kPa | 707.55 ± 0.35
352.51 K, 3013 kPa | 708.48 ± 0.36
352.51 K, 4019 kPa | 709.46 ± 0.37
352.51 K, 5027 kPa | 710.45 ± 0.39
352.51 K, 6014 kPa | 711.35 ± 0.4
352.51 K, 7020 kPa | 712.33 ± 0.42
352.51 K, 8000 kPa | 713.23 ± 0.43
352.51 K, 9024 kPa | 714.18 ± 0.44
352.51 K, 10009 kPa | 715.07 ± 0.46
352.51 K, 11022 kPa | 715.96 ± 0.47
352.51 K, 12012 kPa | 716.84 ± 0.48
352.51 K, 13026 kPa | 717.71 ± 0.5
352.51 K, 14017 kPa | 718.6 ± 0.51
352.51 K, 15021 kPa | 719.45 ± 0.52
352.51 K, 16022 kPa | 720.3 ± 0.54
352.51 K, 17012 kPa | 721.08 ± 0.55
352.51 K, 18027 kPa | 721.95 ± 0.56
352.51 K, 19013 kPa | 722.74 ± 0.58
352.51 K, 20028 kPa | 723.53 ± 0.59
352.51 K, 21021 kPa | 724.33 ± 0.6
352.51 K, 22023 kPa | 725.14 ± 0.62
352.51 K, 23008 kPa | 725.88 ± 0.63
352.51 K, 24020 kPa | 726.65 ± 0.64
352.51 K, 24813 kPa | 727.31 ± 0.65
362.29 K, 1015 kPa | 699.21 ± 0.33
362.29 K, 2020 kPa | 700.31 ± 0.35
362.29 K, 3015 kPa | 701.33 ± 0.36
362.29 K, 4012 kPa | 702.34 ± 0.38
362.29 K, 5029 kPa | 703.4 ± 0.39
362.29 K, 6009 kPa | 704.36 ± 0.41
362.29 K, 7029 kPa | 705.38 ± 0.42
362.29 K, 8013 kPa | 706.3 ± 0.43
362.29 K, 9012 kPa | 707.31 ± 0.45
362.29 K, 10038 kPa | 708.31 ± 0.46
362.29 K, 11027 kPa | 709.22 ± 0.48
362.29 K, 12009 kPa | 710.09 ± 0.49
362.29 K, 13007 kPa | 711.04 ± 0.5
362.29 K, 14015 kPa | 711.96 ± 0.52
362.29 K, 15008 kPa | 712.81 ± 0.53
362.29 K, 16034 kPa | 713.71 ± 0.54
362.29 K, 17030 kPa | 714.59 ± 0.56
362.29 K, 18011 kPa | 715.43 ± 0.57
362.29 K, 19021 kPa | 716.29 ± 0.58
362.29 K, 20007 kPa | 717.15 ± 0.6
362.29 K, 21017 kPa | 717.94 ± 0.61
362.29 K, 22032 kPa | 718.77 ± 0.62
362.29 K, 23002 kPa | 719.6 ± 0.64
362.29 K, 24005 kPa | 720.38 ± 0.65
362.29 K, 24809 kPa | 721.05 ± 0.66
